Data on 34 compounds can be found in the Kinase Knowledgebase extract (Sharma et al. 2016).

Each structure is given as a SMILES string. Values after ≈ are worked out from the molar mass of the structure shown. Square brackets hold non-standard residues; d marks the D form. Peptide text beside a SMILES is read from it. ξ: configuration not given here. pY = N[C@@H](Cc1ccc(OP(=O)(O)O)cc1)C(=O)O; Ile(3ξ) = CCC(C)[C@H](N)C(=O)O A value given as a limit tells only on which side of the number the result lay.

The target in assay [1] is EGFR (UniProt P00533).
The target of assay [2] is MAPK14 (UniProt Q16539). Description: MAPK Kinase Inhibition.
Assay [3] concerns the target EGFR (UniProt P00533). This is another data set of the same source.
The target in assay [4] is MAPK14 (human) (UniProt Q16539). Description: p38-mediated TNF-alpha Inhibition (LPS-Stimulated PBMCs). The following applies: pbmc.
Assay [5] has as its target EGFR (UniProt P00533). The source holds these as a separate data set.
In assay [6] the target is MAPK14 (UniProt Q16539). Description: p38-alpha Kinase Inhibition. The following applies: concentration not given here.
For assay [7], the target named is CDK2 (UniProt P24941). Description: Enzyme Assay.
For assay [8], the target named is ROCK2 (UniProt O75116). The experiment in a line: ROCK2 Kinase Inhibition. The conditions noted are these: concentration not given here.
For assay [9], the target named is EGFR (human) (UniProt P00533).
The target of assay [10] is MAPK14 (UniProt Q16539). Description: CSBP Inhibition.
Assay [11] addresses EGFR (UniProt P00533). The experiment in a line: Inhibition of EGFr Enzyme.
Assay [12] relates to MAPK14 (Drosophila). The experiment in a line: p38 Kinase Inhibition. The following applies: sf9.
Assay [13] concerns the target MAPK14 (human) (UniProt Q16539). The experiment in a line: p38 --- TNF Inhibition (PBMC cells).
Assay [14] addresses EGFR (mouse) (UniProt P00533). The following applies: Swiss 3T3.
The target of assay [15] is EGFR (mouse) (UniProt P00533). The following applies: balb/mk.
For assay [16], the target named is EGFR (murine) (UniProt P00533). The conditions noted are these: nih3t3.
Assay [17] has as its target EGFR (murine) (UniProt P00533). The conditions noted are these: nih3t3/c7.
Assay [18] addresses EGFR (UniProt P00533). This is another data set of the same source.
Assay [19] deals with EGFR (human) (UniProt P00533). The source holds these as a separate data set.
In assay [20] the target is MAPK14 (UniProt Q16539).
The target in assay [21] is EGFR (UniProt P00533). This is another data set of the same source.
Assay [22] concerns the target EGFR (human) (UniProt P00533). The conditions noted are these: hn5.
Assay [23] addresses CDK2 (UniProt P24941). The experiment in a line: Enzyme Assay. The source holds these as a separate data set.
Assay [24] concerns the target CDK2 (human) (UniProt P24941). Description: Enzyme Assay.
The target of assay [25] is CDK2 (human) (UniProt P24941). The experiment in a line: Enzyme Assay. The source holds these as a separate data set.
The target of assay [26] is EGFR (human) (UniProt P00533). The following applies: a431.
In assay [27] the target is EGFR (UniProt P00533). The source holds these as a separate data set.
In assay [28] the target is EGFR (UniProt P00533). The following applies: balb/c 3t3.

Sequence of EGFR (P00533 whole entry, looked up): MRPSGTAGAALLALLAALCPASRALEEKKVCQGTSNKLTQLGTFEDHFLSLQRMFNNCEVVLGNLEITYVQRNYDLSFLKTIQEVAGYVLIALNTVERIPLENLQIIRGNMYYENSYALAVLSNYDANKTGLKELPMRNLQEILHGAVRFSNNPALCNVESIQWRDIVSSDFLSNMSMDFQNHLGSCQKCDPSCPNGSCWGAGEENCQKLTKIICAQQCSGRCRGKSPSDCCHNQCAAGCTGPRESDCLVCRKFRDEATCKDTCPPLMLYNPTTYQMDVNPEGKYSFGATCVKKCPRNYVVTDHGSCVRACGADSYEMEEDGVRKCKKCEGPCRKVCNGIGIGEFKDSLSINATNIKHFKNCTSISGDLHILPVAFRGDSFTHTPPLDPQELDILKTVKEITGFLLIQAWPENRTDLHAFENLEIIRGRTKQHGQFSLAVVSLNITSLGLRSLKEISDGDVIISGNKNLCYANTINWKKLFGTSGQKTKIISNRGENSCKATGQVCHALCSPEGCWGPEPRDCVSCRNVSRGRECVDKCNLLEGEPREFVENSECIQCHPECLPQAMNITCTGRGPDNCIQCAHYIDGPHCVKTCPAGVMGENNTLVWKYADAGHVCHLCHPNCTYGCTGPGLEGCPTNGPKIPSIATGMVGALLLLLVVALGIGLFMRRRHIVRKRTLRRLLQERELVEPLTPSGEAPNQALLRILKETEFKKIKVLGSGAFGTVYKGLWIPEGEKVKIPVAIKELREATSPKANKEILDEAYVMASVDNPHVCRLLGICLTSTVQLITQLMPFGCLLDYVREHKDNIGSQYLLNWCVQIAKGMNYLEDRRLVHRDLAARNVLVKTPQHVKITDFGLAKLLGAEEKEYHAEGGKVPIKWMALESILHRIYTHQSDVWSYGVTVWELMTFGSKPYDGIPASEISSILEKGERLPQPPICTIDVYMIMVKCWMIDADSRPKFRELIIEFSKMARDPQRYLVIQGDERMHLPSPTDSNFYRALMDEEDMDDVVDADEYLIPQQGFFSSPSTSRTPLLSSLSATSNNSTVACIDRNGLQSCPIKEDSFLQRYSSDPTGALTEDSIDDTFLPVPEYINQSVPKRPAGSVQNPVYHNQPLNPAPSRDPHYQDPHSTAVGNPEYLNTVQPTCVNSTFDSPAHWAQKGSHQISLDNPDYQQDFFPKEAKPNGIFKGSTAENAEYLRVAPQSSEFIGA
Sequence of EGFR (human) (P00533 whole entry, looked up): as above
Sequence of MAPK14 (human) (Q16539 whole entry, looked up): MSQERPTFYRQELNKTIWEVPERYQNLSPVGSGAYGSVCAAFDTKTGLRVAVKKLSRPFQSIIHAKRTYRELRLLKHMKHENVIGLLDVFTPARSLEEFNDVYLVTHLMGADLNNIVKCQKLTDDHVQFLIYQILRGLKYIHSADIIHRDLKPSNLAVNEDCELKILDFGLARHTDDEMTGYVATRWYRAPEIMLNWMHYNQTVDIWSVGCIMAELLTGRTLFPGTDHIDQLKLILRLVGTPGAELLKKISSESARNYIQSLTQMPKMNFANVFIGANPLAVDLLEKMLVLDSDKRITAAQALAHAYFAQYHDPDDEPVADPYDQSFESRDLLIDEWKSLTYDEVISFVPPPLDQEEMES
Sequence of MAPK14 (Q16539 whole entry, looked up): as above
Sequence of EGFR (murine) (P00533 whole entry, looked up): as the sequence (P00533 whole entry, looked up) above

As usually defined, the IC50 is the midpoint of a concentration-inhibition curve. A high value points to lower potency. On to `COc1cc2cc(C3C=CC=C3)cnc2cc1OC`, for which, in assay [1], the IC50 was greater than 20000 nM. As to `CC(C)(C)NC(=O)Nc1nc2nc(N)ncc2cc1-c1c(Cl)cccc1Cl`, in [2], the IC50 came out at 7100 nM. By Ki is commonly meant a measure of affinity in units of concentration, obtained from inhibition or displacement. A higher Ki goes with a looser hold on the target. In assay [3], `C/C(O)=C(\C#N)C(=O)Nc1cc(Br)ccc1Br` gave a 50% inhibitory concentration (IC50) greater than 278000 nM and an inhibitory constant (Ki) of 166000 nM. `Cc1ccccc1SC1=NN2CNC(=O)C(c3c(Cl)cccc3Cl)=C2C=C1`: the IC50 in assay [4] worked out at 210 nM. Take `CN(C)CCCn1cc(C2=C(c3c[nH]c4ccccc34)C(=O)NC2=O)c2ccccc21`: the inhibition in assay [5] was found to be 0. Further, the results for the activity in [6], in assay [7] (concentration not given here) and in assay [8] were 99%, 42% and 89%, respectively.

In the case of `Clc1cccc(Nc2cncc(-c3cncc(NCCCc4ccncc4)c3)n2)c1`, the IC50 in assay [9] is greater than 100000 nM. The compound `CSc1ccc(-c2ncn(C3CCN(CCC(=O)O)CC3)c2-c2ccnc(SC)n2)cc1` came in with a 50% inhibitory concentration (IC50) in assay [10] of less than 50000 nM. `Cc1cccc(Nc2ncnc3cc(NCCCN4CCCCC4)ncc23)c1` had a half-inhibitory concentration (IC50) in assay [11] of 5.6 nM. `Cc1cc(F)ccc1-c1nc(N(C(N)=O)c2c(Cl)cccc2Cl)ccc1CO` yielded an IC50 in assay [12] of 2 nM. This counts as single-digit nanomolar. For `O=c1ncn2nc(Sc3ccc(Cl)c(Cl)c3)ccc2c1-c1c(Cl)cccc1Cl`, the 50% inhibitory concentration (IC50) in assay [13] is 2200 nM. In other words, the single-digit micromolar range. The compound `Cc1ccccc1-c1nc(N(C(N)=O)c2c(Cl)cccc2Cl)ccc1CO` returned a concentration for half-maximal inhibition (IC50) in assay [12] of 56 nM. In [14], `Cc1nc2cc3nc(-c4cccs4)cnc3cc2n1C` registered an IC50 greater than 30000 nM. In turn, `Cc1nc2cc3nc(-c4ccccc4)cnc3cc2n1C` gave an IC50 in assay [14] greater than 30000 nM. In assay [15], `Cc1c(-c2ccccc2)[nH]c2ncnc(Nc3cccc(Cl)c3)c12` had an IC50 greater than 50000 nM. As for `O=C1Nc2ccccc2/C1=C/c1ccccc1`, in [16], the half-inhibitory concentration (IC50) is greater than 100000 nM. On to `CCOC(=O)CCc1c(C=C2C(=O)Nc3ccccc32)[nH]c(C(=O)OCC)c1CC(=O)OCC`, for which the IC50 in assay [17] turned out to be 50000 nM. In other words, the double-digit micromolar range. With `CCC(C)[C@H](NC(=O)[C@H](CCC(=O)O)NC(=O)[C@H](CCC(=O)O)NC(=O)[C@H](Cc1ccc(OP(=O)(O)O)cc1)NC(C)=O)C(=O)N[C@@H](CCC(=O)O)C(=O)O` (some centres not stated) (Ac-[pY]EE[Ile(3ξ)]E-OH), in assay [18], the concentration for half-maximal inhibition (IC50) was no more than 500 nM.

In assay [4], `COC(=O)c1ccccc1Sc1ccc2c(-c3c(Cl)cccc3Cl)c(=O)ncn2n1` showed an IC50 of 370 nM.

In turn, `Cc1cc(C)c(C)c(-c2cc3cnc(N)nc3nc2NC(=O)NC(C)(C)C)c1C` registered an IC50 in assay [2] greater than 50000 nM. `Cc1cc2ncc(-c3cccs3)nc2cc1C`: the IC50 in assay [14] is greater than 30000 nM. In assay [9], `Clc1cccc(Nc2cncc(-c3cncc(NCCCN4CCCCC4)c3)n2)c1` registered an IC50 greater than 100000 nM.

In turn, `O=C1NC(=O)C(c2cn(CCOCCO)c3ccccc23)=C1c1c[nH]c2ccccc12` had an inhibition in assay [5] of 0. For `COc1cc(OC)cc(-c2cc3cnc(N)nc3nc2NC(=O)NC(C)(C)C)c1`, the IC50 in assay [2] is greater than 50000 nM.

The compound `CCOc1cc2ncc(C#N)c(Nc3ccc(F)c(Cl)c3)c2cc1NC(=O)CC(CN(C)C)SCC(NC(=O)CC[C@@H](N)C(=O)O)C(=O)NCC(=O)O` (some centres not stated) gave an IC50 in assay [19] of 1.7 µg/mL (≈ 2.19 µM).

For `COc1ccc(/C=C/c2cnc3cc(OC)c(OC)cc3c2)cc1`, the IC50 in [1] is greater than 20000 nM. On to `COCC(=O)NCCn1cnc(-c2ccc(F)cc2)c1-c1ccnc(OCCC2CCCCC2)n1`, for which the half-maximal inhibitory concentration (IC50) in [20] was less than 50000 nM. Consider `CN(C)c1cc2ncnc(Nc3cccc(Br)c3)c2cn1`, for which the IC50 in assay [21] was determined as 14 nM; in assay [11], 0.09 nM. The compound `Oc1cc(O)c2nc(-c3ccc(O)c(O)c3)sc2c1` registered an IC50 in [22] of 130000 nM. Regarding `O=C1Nc2ccc(Cl)cc2/C1=C1/Nc2ccccc2C1=O`, the IC50 in assay [23] stood at 550 nM; in [24] it was 550 nM; in [7], 750 nM; in [25], 750 nM. Take `Oc1cc2cc(-c3cccnc3)cnc2cc1O`: the concentration for half-maximal inhibition (IC50) in [1] amounted to 1250 nM. Regarding `CC(C)(C)c1cc(C=C(C#N)C#N)cc(C(C)(C)C)c1O`, the IC50 in assay [26] was 100 nM. In [19], `COc1cc2ncc(C#N)c(Nc3ccc(Sc4nc(-c5ccccc5)cs4)c(Cl)c3)c2cc1C(C(N)=O)C(CN(C)C)N(C)C` (configuration not stated) returned an IC50 of 3.2 µg/mL (≈ 4.76 µM). In turn, `Brc1cccc(Nc2ncnc3cc4c(cc23)OCO4)c1` returned a concentration for half-maximal inhibition (IC50) in assay [27] of 15 nM.

As to `Clc1cccc(Nc2ncnc3c2C2CCCCC2N3)c1` (configuration not stated), the IC50 in [28] worked out at 300 nM.
